Reference: patent US12194026B2, “Drug for treating tinnitus” (UNIVERSITY OF SOUTH FLORIDA, priority 2018, dated 2025)
“Also recorded” adds a separate entry of the source.

What was measured:
[1] = system: young adult CBA/CaJ mice; assay: Gap pre-pulse inhibition of the acoustic startle (GPIAS), Gap-PPI, SS-induced tinnitus
Description: (§1) SS can be administrated 2 hours before measuring the behavioral manifestations of tinnitus.
(§2) Behavioral assay: The presence of tinnitus may be indicated by a failure to respond to silence embedded in sound stimuli near the tinnitus frequency. A sound pulse-evoked acoustic startle reflex (ASR) is commonly used to determine if an animal can detect silent gaps in narrow-band noise and this method appears to detect tinnitus in humans. Failure of a first sound pulse to suppress a second sound pulse-evoked startle reflex is indicative of tinnitus. This ASR assay has a similar sensitivity for changes in gap detection to a behavioral conditioning paradigm in which animals are trained to response to gaps in noise. Elevations in the ASR amplitude have been linked to the presence of hyperacusis, a disorder often comorbid with tinnitus. Thus, the assay probed possible influences of BK channel function on both tinnitus and hyperacusis.
(§3) General Procedure. Mice underwent sequential assessment of the effect of treatment (baseline; sodium salicylate; sodium salicylate with BMS-191011). Baseline measures were acquired before sodium salicylate (SS) administration so that mice served as their own controls. Tinnitus was induced transiently by intraperitoneal (i.p.) injection of 250 mg/kg SS (concentration: 25 mg/mL 0.9% saline). SS induces tinnitus in humans, and SS-treated animals share markers of tinnitus with humans. Behavioral or neurophysiological manifestations of tinnitus were assessed 2 hours following SS injection, and were completed within 3.5 hours. Jastreboff et al. reported that after an i.p. injection of SS in rats, the maximum levels in blood serum occurred 1.5 hours later, while the maximum levels in the perilymph and spinal fluid reached maximum levels within 2-4 hours. However, behavioral manifestations of tinnitus are observed up to 48 hours following administration (cite). […]
Modification of the ASR by stimuli placed before the SES is typically observed as a reduction in startle amplitude or pre-pulse inhibition (Hoffman and Ison, 1980; Ison and Hoffman, 1983). To probe the tinnitus percept (Longenecker and Galazyuk, 2012; Turner, 2007), Turner and colleagues used a relatively long silent gap imbedded in an ongoing narrow band noise (NBN) placed before the SES; various center frequencies of the NBN were used. The paradigm as a whole is referred to as the gap pre-pulse inhibition of the acoustic startle (GPIAS). The silent gap is demonstrably perceived; but, if the tinnitus pitch is in the region of the pitch of the ongoing NBN, the animal will presumably be impaired at detecting the gap (Turner, et al 2007). The presence of tinnitus is then indicated by a reduction in pre-pulse inhibition to the gap stimulus, or Gap-PPI, when the gap carrier pitch is near the tinnitus frequency (Turner, 2007). To perform the GPIAS assay, in this study the SES (presented at 100 dB SPL) was preceded by a 150-ms, 70-dB narrow band noise (⅓ octave) centered at 6, 12, 16, 20, or 24 kHz. During gap trials, a 50-ms silent gap was inserted 100 ms before the SES. Ten trials of each stimulus were presented to obtain the Gap PPI function.

[2] = cited from earlier work
[3] = system: CBA/CaJ mice; assay: Auditory brainstem response (ABR) recordings before and after SS
Description: General Procedure. Mice underwent sequential assessment of the effect of treatment (baseline; sodium salicylate; sodium salicylate with BMS-191011). Baseline measures were acquired before sodium salicylate (SS) administration so that mice served as their own controls. Tinnitus was induced transiently by intraperitoneal (i.p.) injection of 250 mg/kg SS (concentration: 25 mg/mL 0.9% saline). SS induces tinnitus in humans, and SS-treated animals share markers of tinnitus with humans. Behavioral or neurophysiological manifestations of tinnitus were assessed 2 hours following SS injection, and were completed within 3.5 hours. Jastreboff et al. reported that after an i.p. injection of SS in rats, the maximum levels in blood serum occurred 1.5 hours later, while the maximum levels in the perilymph and spinal fluid reached maximum levels within 2-4 hours. However, behavioral manifestations of tinnitus are observed up to 48 hours following administration (cite). BMS-191011 (Sigma Aldrich) was administered i.p. (0.5 mg/kg) or topically (1 μL of 1-10 μM) at the dura over the auditory midbrain.
ABR Assays. To obtain an electrophysiological measure of auditory evoked activity in the auditory nerve and brainstem, ABR assays were performed as described previously (Longenecker and Galazyuk, 2011; Lowe and Walton, 2015), and as briefly outlined below. Animals were anesthetized with i.p. administration of ketamine (120 mg/kg) and xylazine (10 mg/kg). Respiration was monitored during testing and used to guide administration of supplemental anesthesia. Body temperature was kept constant at 37° C. using a feedback-controlled heating pad (Physitemp TCAT2-LV Controller, Clifton, NJ).
ABRs were recorded using BioSig software in a soundproof booth lined with echo-attenuating acoustic foam. ABRs were evoked by 256 tone burst stimuli. Tone bursts were 3 msec in duration (1-ms rise/fall time, alternating polarity) presented at 6, 12, 16, 20, 24, and 36 kHz at a rate of 29 per second, attenuated in 5 dB steps from 80 dB SPL to 15 dB below threshold or 5 dB SPL, whichever was lower. Threshold was determined by visual inspection as the lowest intensity level which produced a defined peak in two replicates. Peaks 1-5 (P1-5) were detected and measured in the ABR waveforms using custom designed MATLAB software.

[4] = system: young adult CBA/CaJ mice; assay: Acoustic startle reflex (ASR) amplitude, startle input-output function, salicylate (SS) tinnitus model
Description: as §1, §2, §3
Behavioral Assays. Behavioral assessment were performed as described previously (Longenecker and Galazyuk, 2011; Lowe and Walton, 2015), and as briefly outlined below. The animals were acclimated to the testing room by placing the home cage in the testing room 30 min prior to testing. The acoustic startle response (ASR), a transient motor response to a startle eliciting stimulus (SES), was converted to voltage by placing mice on a custom-built platform connected to piezoelectric transducers located inside a sound attenuated chamber. SESs were 20-ms Gaussian broadband noise bursts (1-ms rise/fall time), filtered at 500 Hz-40 kHz. To measure threshold and amplitude of the ASR, the intensity of the SES was varied between 55-115 dB SPL. Ten trials were run for each stimulus in order to acquire the startle input-output function.

[5] = system: IC of awake CBA/CaJ mice; assay: Multi-channel neurophysiological recordings in the inferior colliculus (IC, auditory midbrain); format: in vivo, mouse
Description: IC neurophysiological recordings. Surgery and extracellular recordings were collected and analyzed by a method identical to a procedure used in a previous study. The right IC was located stereotaxically and exposed via a small (<1.0 mm) craniotomy. Prior to recording, chlorprothixene (Taractin®, 5-12 μl/g i.m.) was administered to prevent involuntary movement via inhibition of parasympathetic nerve impulses. The animal was then secured in a custom stereotaxic frame (Newport-Klinger) in a heated (34° C.) chamber lined with sound-absorbing foam (Sonex®). Multi-unit extracellular activity was recorded using vertically oriented single shank silicon acute penetrating 16-channel electrodes with an impedance ranging from 1.2 to 2.1 MΩ (Type-A, 3 mm×100 μm; NeuroNexus Technologies). Excitatory frequency response areas (eFRAs) from all active channels were acquired simultaneously using 2 to 64 kHz, 25 ms (5 ms rise/fall) tone burst stimuli presented at 0 to 80 dB SPL in 5 dB steps. A total of 2125 frequency and intensity combinations were presented pseudo-randomly five times each at a rate of 10/s. The change in the driven response due to treatment was assessed via maximum number of spikes per stimulus within the boundary of each eFRA.

[6] = in vivo; cited from earlier work
[7] = molecular target: BK channel (Homo sapiens, UniProt Q12791); settings: relative to Maxipost; cited from earlier work
Chain of BK channel (Q12791 whole entry, species assumed): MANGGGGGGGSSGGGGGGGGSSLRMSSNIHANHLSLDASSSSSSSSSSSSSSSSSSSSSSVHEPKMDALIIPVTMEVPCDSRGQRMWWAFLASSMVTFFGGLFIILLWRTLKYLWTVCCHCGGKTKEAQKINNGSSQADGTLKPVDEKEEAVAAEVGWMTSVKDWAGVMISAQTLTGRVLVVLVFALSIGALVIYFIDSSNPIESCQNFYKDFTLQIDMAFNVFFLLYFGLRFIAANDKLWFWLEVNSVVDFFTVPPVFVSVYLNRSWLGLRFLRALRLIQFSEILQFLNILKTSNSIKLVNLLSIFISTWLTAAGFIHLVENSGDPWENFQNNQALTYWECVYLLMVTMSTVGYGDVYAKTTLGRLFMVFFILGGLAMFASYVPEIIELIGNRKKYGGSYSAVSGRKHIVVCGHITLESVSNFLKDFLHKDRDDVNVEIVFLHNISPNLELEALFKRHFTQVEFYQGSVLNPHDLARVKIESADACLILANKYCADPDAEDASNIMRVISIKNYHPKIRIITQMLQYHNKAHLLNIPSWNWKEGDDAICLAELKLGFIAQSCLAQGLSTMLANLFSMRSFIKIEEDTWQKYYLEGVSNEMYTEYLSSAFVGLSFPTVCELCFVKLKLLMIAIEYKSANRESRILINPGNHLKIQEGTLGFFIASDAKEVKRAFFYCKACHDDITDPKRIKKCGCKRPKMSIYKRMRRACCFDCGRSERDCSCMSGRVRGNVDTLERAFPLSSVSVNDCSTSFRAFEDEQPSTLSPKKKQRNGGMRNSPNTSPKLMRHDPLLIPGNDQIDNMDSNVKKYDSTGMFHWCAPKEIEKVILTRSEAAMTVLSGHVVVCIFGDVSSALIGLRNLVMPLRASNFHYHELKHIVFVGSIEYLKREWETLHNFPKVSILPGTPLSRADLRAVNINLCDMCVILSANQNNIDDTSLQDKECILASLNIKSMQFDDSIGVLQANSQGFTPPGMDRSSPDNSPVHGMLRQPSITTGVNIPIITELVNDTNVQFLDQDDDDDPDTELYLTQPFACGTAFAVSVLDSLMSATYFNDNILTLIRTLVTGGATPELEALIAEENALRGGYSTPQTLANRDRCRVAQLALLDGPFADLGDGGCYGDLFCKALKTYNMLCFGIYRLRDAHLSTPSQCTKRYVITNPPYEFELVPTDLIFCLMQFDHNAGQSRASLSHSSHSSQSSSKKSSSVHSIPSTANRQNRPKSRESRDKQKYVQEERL

[8] = system: animals; settings: cited from earlier work
[9] = rats, after i.p. injection, Jastreboff et al.
[10] = SS 250 mg/kg i.p., 12-20 kHz stimuli
[11] = BMS-191011 after SS, 12, 16, 20, 24 kHz tones
[12] = BMS-191011 after SS, 60 dB tones

SMILES: O=C([O-])c1ccccc1O.[Na+] [SS, sodium salicylate]
- Gap-PPI relative to baseline, 12-20 kHz carrier ([1]; SS 250 mg/kg i.p. alone): reduced Gap-PPI; also recorded: significant decrease in % Gap PPI
- Gap-PPI, 24 kHz carrier ([1]; SS 250 mg/kg i.p. alone): did not influence Gap-PPI
- time for which behavioral manifestations of tinnitus are observed after administration ([2]; following administration): up to 48 hours
- time of maximum levels in blood serum [2, 9]: 1.5 h
- time of maximum levels in perilymph and spinal fluid [2, 9]: 2 to 4 h
- ABR P1 amplitudes relative to baseline ([3]; SS 250 mg/kg i.p.): significantly reduced P1 amplitudes
- ABR P1 latencies relative to baseline ([3]; SS 250 mg/kg i.p.): longer P1 latencies; also recorded: significantly delayed P1 latencies
- P2/P1 amplitude ratio relative to baseline [3, 10]: substantially increased; also recorded: significantly increased the P2/P1 ratio
- P4/P1 amplitude ratio relative to baseline [3, 10]: still increased; also recorded: significantly increased the P4/P1 ratio
- ABR P2 amplitude relative to baseline ([3]; SS 250 mg/kg i.p., 12-20 kHz, higher intensities (60-80 dB SPL)): either increased or stayed the same; also recorded: increased P2 amplitude at 80 dB
- increase in ABR thresholds ([3]; SS 250 mg/kg i.p., across the frequency spectrum): ~20 dB
- startle amplitude intensity-response function relative to baseline ([4]; SS 250 mg/kg i.p. alone): increased the intensity-response function; also recorded: significant increase in startle amplitude

SMILES: O=c1oc(-c2ccc(C(F)(F)F)cc2)nn1Cc1cc(Cl)ccc1O [BMS-191011, 3-[(5-chloro-2-hydroxyphenyl)methyl]-5-[4-(trifluoromethyl)phenyl]-1,3,4-oxadiazol-2(3H)-one]
- Gap-PPI for stimuli within the tinnitus percept ([1]; Example 1, 16 kHz region, after SS, BMS191011 i.p. 5 mg/kg): returned Gap-PPI to baseline levels
- % Gap PPI, 12-20 kHz carriers ([1]; Example 2, BMS-191011 after SS 250 mg/kg, N=6): returned SS-suppressed Gap-PPIs to baseline levels
- Gap-PPI, 24 kHz carrier ([1]; Example 2, BMS-191011 after SS, outside expected tinnitus range): no effect on Gap-PPI
- Gap-PPI functions, compound administered alone ([1]; Example 2, without SS): not significantly altered from baseline
- sound-evoked activity in the IC ([5]; Example 1, control mice, local administration (topical application over the dura)): suppressed sound-evoked activity
- spontaneous activity (spontaneous spikes per 25 ms) ([5]; mice not given SS, topical 1 μL of 1-10 μM): remained unchanged; also recorded: no significant change
- reduction of sound-evoked activity (maximum number of spikes evoked by a tone) ([5]; mice not given SS, topical 1 μL of 1-10 μM, hours 2-4 after treatment): ~50%
- time after administration by which suppression of sound-evoked activity (maximal spikes per 25 ms stimulus) is significant ([5]; mice not given SS, topical at the dura, 1 μL of a 1-10 μM solution): ≤ 1 h
- brain availability [6]: high brain-availability
- affinity and specificity for the BK channel compared with Maxipost [7]: higher affinity and specificity
- effect of SS on ABR P2 amplitudes ([3]; BMS-191011 after SS): did not substantively alter; also recorded: did not significantly alter the effect of SS treatment
- effect of SS on ABR P4 amplitudes ([3]; BMS-191011 after SS): did not substantively alter; also recorded: did not significantly alter the effect of SS treatment
- SS-induced ABR threshold shift ([3]; BMS-191011 after SS, 1 hour before ABR recordings): did not significantly alter; also recorded: not further altered
- SS-induced decrease in ABR P1 amplitudes [3, 11]: did not significantly alter the effect of SS treatment
- SS-induced shift in ABR P1 latencies [3, 11]: did not significantly alter; also recorded: minimally altered the effect of SS treatment
- SS-increased P2/P1 amplitude ratio [3, 12]: did not substantively alter; also recorded: unaltered
- SS-increased P4/P1 amplitude ratio [3, 12]: unaltered
- ASR amplitude after SS treatment ([4]; Example 1, mouse model, SS 2 hours before, BMS191011 i.p. 5 mg/kg): did not appear to return this toward baseline
- SS-induced increase in startle amplitude intensity-response function ([4]; Example 2, BMS-191011 i.p. after SS 250 mg/kg, 1 hour before testing, N=6): did not reverse the effects of SS administration; also recorded: not significantly altered
- startle amplitudes, compound administered alone ([4]; Example 2, without SS): did not alter startle amplitudes
- cardiac effects (heart rate, blood pressure) ([8]; animals): without signs of negative cardiac effects
- tolerability in animals ([8]; in vivo): well-tolerated
